Data taken from patent US9603859B2, “Methods and products for increasing the rate of healing of tissue wounds” (BRIGHAM YOUNG UNIVERSITY, priority 2011, dated 2017).

Tested on: primary human MSC cells
Assay: Wound healing array q-PCR gene expression in mesenchymal stem cells
Format: cell-based
Conditions: 8 hours treatment
Excerpt: To determine the role of synthetic Ceragenins CSA-13, 44 and 90 in wound healing using mesenchymal stem cells (MSC), targeted mRNA panels from SABiosciences, and primary cells from Lonza were selected. Cells were purchased from Lonza.com and used fresh for each test using recommended media and culture conditions. After treatment, mRNA was isolated using Qiagen RNeasy Mini Kit®, and quantified using a NanoDrop 2000® by UV at 260 nm and 260/280 ratio for purity. cDNA was made using a First Strand Kit® from SABiosciences and processed for real time PCR using a kit from the same company for selected analysis of wound healing pathways. Results from q-PCR were uploaded to the SABiosciences site and to Ingenuity.com web site for analysis and pathway mapping. SABiosciences wound healing array plates (Cat# PAHS-121) and innate/acquired immune response plates (PAHS-052) were used. These arrays are fully validated when used as recommended. On day 1, primary human MSC cells were plated at 200,000 cells/well using 6-well plates with 3 ml of recommended media—hMSC Basal Medium+BulletKit (50 ml Growth Supplement, 10 ml L-Glutamine and 0.5 ml Gentamicin Sulfate Amphotercin-B) for 24 hours. Only early passages of cells were used, and never from frozen stock. On day 2, cells were treated with compounds dissolved in DMSO diluted 1:1000 or more to avoid effects of the solvent. Final testing concentration for CSA-13 was 5.0 μM. Treatment lasted 8 hours, and was followed by RNA isolation using QIAGEN RNeasy Mini Kit® (74104). RNA was measured at 260/280 nm using a NanoDrop 2000® and normalized to 2.4 ng per well, cDNA preparation was done using QIAGEN First Strand kit 330401. q-PCR was run as absolute quantification and threshold set at 0.1 units. Dendritic cells were plated at 500,000 cells/well using 24-well plate with 500 ul of Lonza LGM-3 Complete Growth Medium with and without compound. Treatment lasted 8 hours, and was followed by RNA isolation using QIAGEN RNeasy Mini Kit® (74104). RNA was measured at 260/280 nm using NanoDrop2000® and normalized to 2.4 ng per well, cDNA preparation was done using QIAGEN First Strand kit 330401. PCR was run as absolute quantification and threshold set at 0.1 units. For the wound healing array, strong upregulation of growth factors such as HB-EGF and cell migration factors such as MMP1 and CXCL2 were found, indicating a clear potential for CSA as a modulator of wound healing. Additional gene expression data is provided in Tables 1-3 for CSA-13, 44, and 90, respectively.

SMILES	Fold Regulation ANGPT1 (CSA-13 at 5.0 μM)	Fold Regulation CCL7 (CSA-13 at 5.0 μM)	Fold Regulation CXCL1 (CSA-13 at 5.0 μM)	Fold Regulation CXCL2 (CSA-13 at 5.0 μM)	Fold Regulation F13A1 (CSA-13 at 5.0 μM)	Fold Regulation FGF10 (CSA-13 at 5.0 μM)	Fold Regulation HBEGF (CSA-13 at 5.0 μM)	Fold Regulation IL2 (CSA-13 at 5.0 μM)	Fold Regulation IL6 (CSA-13 at 5.0 μM)	Fold Regulation IL10 (CSA-13 at 5.0 μM)	Fold Regulation ITGA2 (CSA-13 at 5.0 μM)	Fold Regulation ITGB3 (CSA-13 at 5.0 μM)	Fold Regulation MMP1 (CSA-13 at 5.0 μM)	Fold Regulation PLAT (CSA-13 at 5.0 μM)	Fold Regulation PLAUR (CSA-13 at 5.0 μM)	Fold Regulation PTGS2 (CSA-13 at 5.0 μM)	Fold Regulation VEGFA (CSA-13 at 5.0 μM)	other results
CCCCCCCCNCCC[C@@H](C)[C@H]1CC[C@H]2[C@@H]3[C@H](OCCCN)C[C@@H]4C[C@H](OCCCN)CC[C@]4(C)[C@H]3C[C@H](OCCCN)[C@]12C [CSA-13]	−2.0046	1.6632	1.6181	4.873	2.0916	3.8659	3.255	1.865	3.1692	−1.6166	3.5659	−1.5243	4.4172	−2.1487	1.6286	3.3333	1.7274	Fold Regulation CSF2 (CSA-13 at 5.0 μM): −2.4867; Fold Regulation CXCL5 (CSA-13 at 5.0 μM): 2.0582; Fold Regulation F3 (CSA-13 at 5.0 μM): −3.3945; Fold Regulation FGF2 (CSA-13 at 5.0 μM): −1.633; Fold Regulation IL4 (CSA-13 at 5.0 μM): −1.9944; Fold Regulation PLAU (CSA-13 at 5.0 μM): 1.7849; Fold Regulation VTN (CSA-13 at 5.0 μM): 2.0612
CCCCCN(CCCCC)CCC[C@@H](C)[C@H]1CC[C@H]2[C@@H]3[C@H](OCCCN)C[C@@H]4C[C@H](OCCCN)CC[C@]4(C)[C@H]3C[C@H](OCCCN)[C@]12C [CSA-90]	−1.915	2.2874	3.1083	36.5878	2.1032	1.9842	3.5988	1.8522	7.2299	−1.7382	14.3637	−1.538	45.3753	−2.14	1.9924	66.6189	3.3257	Fold Regulation ACTA2: −2.5014; Fold Regulation ACTB: −2.0745; Fold Regulation CCL2: −1.5793; Fold Regulation COL4A3: −1.6195; Fold Regulation CTGF: −15.7171; Fold Regulation CTSK: 1.5366; Fold Regulation CTSL2: 1.6306; Fold Regulation EGFR: 1.6212; Fold Regulation FGF7: 5.1689; Fold Regulation HGF: 2.3334; Fold Regulation IFNG: 1.839; Fold Regulation IGF1: 2.2724; Fold Regulation ITGA3: −1.5127; Fold Regulation ITGB6: 1.9381; Fold Regulation MMP9: 2.5652; Fold Regulation SERPINE1: −3.7307; Fold Regulation TGFBR3: −1.5938; Fold Regulation TIMP1: 1.8212; Fold Regulation WISP1: −2.3543
